Patent US20070049599A1, “Use of bh4 for the treatment of respiratory diseases” (Altana Pharma AG, priority 2003, published 2007)

Legend:
[1] = tested on: EA.hy926 endothelial cells; experiment: Conversion of BH4 derivatives into BH4 by endothelial cells (intracellular biopterin content by HPLC); assay type: cell-based; conditions: 100 μM, FIG. 1
Experimental: Endothelial cells (HUVEC and ERhy926) were cultivated in the appropriate culture medium and treated with sepiapterin and BH4 (100 μM each) respectively, for the indicated time periods. After excess wash steps using PBS the cells were lysed and the biopterin content was analysed by reversed phase HPLC with fluorescence detection (excitation: 350 nm, emission: 450 nm) after iodine reduction and semi-purification on Dowex beads as described in detail in Hesslinger et al., J. Biol. Chem. 273, 21616-21622, 1998.

human iNOS [2] = target: T1, human iNOS (Homo sapiens, UniProt P35228); experiment: Promotion of NO synthesis in DAHP-pretreated HEK293iNOS cells (Griess assay); assay type: cell-based; conditions: HEK293iNOS cells pretreated with 10 mM DAHP, increasing concentrations, concentration-dependent, FIG. 2
Experimental: HEK293 cells stably transfected with human iNOS under the transcriptional control of a PonA-inducible promoter were treated with 10 mM DAHP (diaminohydroxypyridin), an inhibitor of GTP cyclohydrolase (Xie et al., J. Biol. Chem. 273, 21091-21098, 1998), to block endogenous production of tetrahydrobiopterin. After stimulating iNOS expression with […] PonA for 24 h and concomitant treatment with 10 mM DAHP increasing concentrations of BH4 or sepiapterin were added and the NO production was measured using the Griess assay to analyse the stable NO products nitrite and nitrate. Nitrate was reduced to nitrite by nitrate reductase and its absorption was determined at 544 nm in a Wallac spectrophotometer.

human iNOS [3] = target: T1, human iNOS; experiment: Superoxide production from recombinant BH4-free and arginine-free human iNOS (ESR, CPH spin trap); assay type: biochemical; parameters: made in house; host or cells: E. coli; conditions: incubation with arginine alone, FIG. 3b
Experimental: Recombinant human iNOS was overexpressed in E. coli and purified using an ADP sepharose column and subsequently a Superdex column to yield BH4free and arginine-free iNOS. 1 μg of human iNOS was incubated together with 200 μM NADPH and 1 mM CPH. After incubation at 37° C. for 60 min the superoxide produced was measured as stable CPH radical in a Bruker e-scan device via electron spin resonance spectroscopy (ESR).

C[C@H](O)C(=O)C1=Nc2c(nc(N)[nH]c2=O)NC1 [sepiapterin]
conversion of exogenous compound into intracellular biopterin [1]: effectively converted into intracellular biopterin within a few minutes | NO synthesis from iNOS (nitrite/nitrate, Griess assay) (human iNOS [2]): promoted NO synthesis

N=C(N)NCCC[C@H](N)C(=O)O [arginine]
reduction of superoxide production (human iNOS [3]): 50%
